Molecular target: T1, Arg-1 (Mus musculus, UniProt Q61176)
T1 construct: endogenous in cells; host or cells: primary G-MDSCs sorted from the spleen of tumor-bearing or CIA mice, and exosomes from their culture supernatant
T1 sequence (Q61176 1-323): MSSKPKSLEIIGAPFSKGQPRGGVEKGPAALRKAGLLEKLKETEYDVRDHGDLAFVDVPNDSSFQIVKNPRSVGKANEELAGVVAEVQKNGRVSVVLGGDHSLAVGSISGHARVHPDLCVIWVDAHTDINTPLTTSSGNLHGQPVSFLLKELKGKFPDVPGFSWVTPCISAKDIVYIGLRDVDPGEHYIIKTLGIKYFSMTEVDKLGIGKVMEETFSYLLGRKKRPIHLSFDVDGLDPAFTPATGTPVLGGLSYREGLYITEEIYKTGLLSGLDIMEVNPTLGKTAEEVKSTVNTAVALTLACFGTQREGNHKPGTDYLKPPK
Assay: Arg-1 activity detection (arginase assay kit)
Type: biochemical
Settings: nor-NOHA (5 mg/ml in DMSO) added to G-MDSC culture; FIG. 7A
Protocol: (1) The activity detection of Arg-1 in G-MDSC exo and inhibition effect of nor-NOHA on the Arg-1 activity in G-MDSC exo: The sorted G-MDSCs are same to example 1. Inoculate 2×10^6 G-MDSCs per well in 24 well plate, and add 1 ml of RPMI-1640 medium and culture at 37° C., 5% CO2 for 16 h. The culture supernatant is collected and used for preparing G-MDSC exo, then the G-MDSC exo was lysed (the same with example 2), and the G-MDSC exo activity was measured with the arginase assay kit from eBioscience company. 5 mg of nor-NOHA powder was dissolved with 1 ml of DMSO, 5 mg/ml nor-NOHA solution is prepared. Experimental groups were treated as follows:
G-MDSC group: G-MDSCs were cultured, and cells are collected.
(G-MDSC+DMSO) group: G-MDSC is cultured after adding […] of DMSO, and cells were collected.
(G-MDSC+NN) group: G-MDSC is cultured after adding […] of nor-NOHA, and cells were collected.
G-MDSC exo group: G-MDSC is cultured, culture supernatant was collected.
(G-MDSC+DMSO) exo group: G-MDSC is cultured after adding […] of DMSO, culture supernatant was collected.
(G-MDSC+NN) exo group: G-MDSC is cultured after adding […] of nor-NOHA, culture supernatant was collected.

In the case of `N=C(NO)NCC[C@H](N)C(=O)O` [NN, nor-NOHA], the “inhibition of Arg-1 activity in G-MDSC exo” value is reported as “could be inhibited”.

Reference: patent US11154571B2, “Exosomes sourced from granulocytic myeloid-derived suppressor cells and application thereof” (Jiangsu University, priority 2015, dated 2021)
